Values quoted from earlier work in patent US11826586B2, “Method for dyeing keratin material, comprising the use of an organic C1-C6-alkoxy-silane and an alkalising agent” (Henkel AG & Co. KGaA, priority 2019, dated 2023).

Conditions: 25° C.

Compound | solubility in water (in words) | solubility in water
O=C(O)C1=NN(c2ccc(S(=O)(=O)O)cc2)C(=O)C1N=Nc1ccc(S(=O)(=O)O)cc1 (stereo not shown) [Acid Yellow 23, 4,5-dihydro-5-oxo-1-(4-sulfophenyl)-4-((4-sulfophenyl)azo)-1H-pyrazole-3-carboxylic acid] | highly soluble | –
O=S(=O)(O)c1ccc(N=Nc2c(O)ccc3ccccc23)cc1 [Acid Orange 7, 4-[(2-hydroxy-1-naphthyl)azo]benzene sulphonate] | – | more than 7 g/L
O=[N+]([O-])c1cc([N+](=O)[O-])c2ccc(S(=O)(=O)O)cc2c1O [Acid Yellow 9, 8-hydroxy-5,7-dinitro-2-naphthalenesulfonic acid] | – | above 40 g/L
CCN(Cc1cccc(S(=O)(=O)O)c1)c1ccc(C(=C2C=CC(=[N+](CC)Cc3cccc(S(=O)(=O)O)c3)C=C2)c2ccccc2S(=O)(=O)[O-])cc1 [Acid Blue 9] | – | more than 20 % by weight
